From the supplement of paper PMC10627819

Tested on: S. aureus DSM 20231
Assay: Bliss interaction score (quartile over a dose matrix) (fitness difference); higher = more antagonism (negative = synergy)
In short: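 Each plate was normalised to the robust mean of its own no-drug wells, using OD595 at entry into stationary phase, with values capped at 1. This normalised growth is the fitness value. The Bliss score is the difference between observed and product-expected fitness, with single-drug fitness inferred from the combination data and quartiles taken over technical, biological and donor/recipient replicates.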
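Note: first quartile when negative (synergy) and third quartile when positive (antagonism).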

| Structure (SMILES) | Bliss interaction score |
| --- | --- |
| CC(=O)Oc1ccccc1C(=O)O [Acetylsalicylicacid] + C=C1/C(=C\C=C2/CCC[C@]3(C)[C@@H]([C@H](C)CCCC(C)C)CC[C@@H]23)C[C@@H](O)C[C@@H]1O [Alfacalcidol] | -0.294 |
| CC(=O)Oc1ccccc1C(=O)O [Acetylsalicylicacid] + CC(C)Cc1ccc(C(C)C(=O)O)cc1 [Ibuprofen] | -0.275 |
| CC(=O)Oc1ccccc1C(=O)O [Acetylsalicylicacid] + CC(C)c1c(C(=O)Nc2ccccc2)c(-c2ccccc2)c(-c2ccc(F)cc2)n1CC[C@@H](O)C[C@@H](O)CC(=O)O [Atorvastatin] | 0.213 |
| CC(=O)Oc1ccccc1C(=O)O [Acetylsalicylicacid] + CCCCc1nc(Cl)c(CO)n1Cc1ccc(-c2ccccc2-c2nnn[nH]2)cc1 [Losartan] | 0.178 |
| CC(=O)Oc1ccccc1C(=O)O [Acetylsalicylicacid] + CCN(CC)C(=O)/C(C#N)=C/c1cc(O)c(O)c([N+](=O)[O-])c1 [Entacapone] | 0.143 |
| CC(=O)Oc1ccccc1C(=O)O [Acetylsalicylicacid] + CC[C@H](c1ccc(O)cc1)[C@@H](CC)c1ccc(O)cc1 [Hexestrol] | -0.455 |
| CC(=O)Oc1ccccc1C(=O)O [Acetylsalicylicacid] + CN(Cc1cnc2nc(N)nc(N)c2n1)c1ccc(C(=O)N[C@@H](CCC(=O)O)C(=O)O)cc1 [Methotrexate] | -0.416 |
| CC(=O)Oc1ccccc1C(=O)O [Acetylsalicylicacid] + C[C@]12CC[C@@H]3c4ccc(O)cc4CC[C@H]3[C@@H]1CC[C@@H]2O [Estradiol] | 0.162 |
| CC(=O)Oc1ccccc1C(=O)O [Acetylsalicylicacid] + Cc1c(Cl)cccc1Nc1ccccc1C(=O)O [Tolfenamic] | -0.263 |
| CC(C)c1c(C(=O)Nc2ccccc2)c(-c2ccccc2)c(-c2ccc(F)cc2)n1CC[C@@H](O)C[C@@H](O)CC(=O)O [Atorvastatin] + CC1(C)S[C@@H]2[C@H](NC(=O)Cc3ccccc3)C(=O)N2[C@H]1C(=O)O [PenicillinG] | 0.402 |
| CC(C)c1c(C(=O)Nc2ccccc2)c(-c2ccccc2)c(-c2ccc(F)cc2)n1CC[C@@H](O)C[C@@H](O)CC(=O)O [Atorvastatin] + CO/N=C(\C(=O)N[C@@H]1C(=O)N2C(C(=O)O)=C(COC(C)=O)CS[C@H]12)c1csc(N)n1 [Cefotaxime] | -0.17 |
| CC(C)c1c(C(=O)Nc2ccccc2)c(-c2ccccc2)c(-c2ccc(F)cc2)n1CC[C@@H](O)C[C@@H](O)CC(=O)O [Atorvastatin] + CO[C@@]12[C@H](COC(N)=O)C3=C(C(=O)C(C)=C(N)C3=O)N1C[C@@H]1N[C@@H]12 [MitomycinC] | 0.187 |
| CC(C)c1c(C(=O)Nc2ccccc2)c(-c2ccccc2)c(-c2ccc(F)cc2)n1CC[C@@H](O)C[C@@H](O)CC(=O)O [Atorvastatin] + COc1cc(Cc2cnc(N)nc2N)cc(OC)c1OC [Trimethoprim] | 0.453 |
| CC(C)c1c(C(=O)Nc2ccccc2)c(-c2ccccc2)c(-c2ccc(F)cc2)n1CC[C@@H](O)C[C@@H](O)CC(=O)O [Atorvastatin] + O=C(O[C@@H]1Cc2c(O)cc(O)cc2O[C@@H]1c1cc(O)c(O)c(O)c1)c1cc(O)c(O)c(O)c1 [EGCG] | -0.118 |
| Cn1c(=O)c2c(ncn2C)n(C)c1=O [Caffeine] + CCC[C@@H]1C[C@@H](C(=O)N[C@@H]([C@H]2O[C@H](SC)[C@H](O)[C@@H](O)[C@H]2O)[C@@H](C)O)N(C)C1 [Lincomycin] | -0.292 |
| Cn1c(=O)c2c(ncn2C)n(C)c1=O [Caffeine] + CCC[C@@H]1C[C@@H](C(=O)N[C@@H]([C@H]2O[C@H](SC)[C@H](O)[C@@H](O)[C@H]2O)[C@H](C)Cl)N(C)C1 [Clindamycin] | -0.251 |
| Cn1c(=O)c2c(ncn2C)n(C)c1=O [Caffeine] + CC[C@H]1OC(=O)[C@H](C)C(=O)[C@H](C)[C@@H](O[C@@H]2O[C@H](C)C[C@H](N(C)C)[C@H]2O)[C@](C)(OC)C[C@@H](C)C(=O)[C@H](C)[C@H]2N(CCCCn3cnc(-c4cccnc4)c3)C(=O)O[C@]12C [Telithromycin] | -0.372 |
| Cn1c(=O)c2c(ncn2C)n(C)c1=O [Caffeine] + CC[C@H]1OC(=O)[C@H](C)[C@@H](O[C@H]2C[C@@](C)(OC)[C@@H](O)[C@H](C)O2)[C@H](C)[C@@H](O[C@@H]2O[C@H](C)C[C@H](N(C)C)[C@H]2O)[C@](C)(OC)C[C@@H](C)C(=O)[C@H](C)[C@@H](O)[C@]1(C)O [Clarithromycin] | -0.357 |
| Cn1c(=O)c2c(ncn2C)n(C)c1=O [Caffeine] + O=C(N[C@H](CO)[C@H](O)c1ccc([N+](=O)[O-])cc1)C(Cl)Cl [Chloramphenicol] | -0.3 |
